The text below walks through data of paper PMC10663924 (Saudi Pharmaceutical Journal : SPJ, 2023).

In series [1] the target is human VEGFR-2 (Homo sapiens, UniProt P35968). As to the kind of experiment: biochemical.
In series [2] the test system is HepG2 cell lines. The series is described as follows: cells. Format: cell-based. As to conditions: Homo sapiens, HepG2, read-out: IC50 proliferation of HepG2 (abstract).
Series [3] concerns MCF7 cells. As to the kind of experiment: Annexin V / PI flow cytometry apoptosis analysis. Type of series: cell-based. As to conditions: 30.95 µM.
In series [4] the target is Human EGFR (Homo sapiens, UniProt P00533). As to the kind of experiment: In vitro multikinase assay.
Series [5] deals with MCF7 cell lines. The series is described as follows: cells. Format: cell-based. As to conditions: Homo sapiens, MCF7, read-out: IC50 proliferation of MCF7 (abstract).
For series [6], the target named is Human PDGFRβ (Homo sapiens, UniProt P09619). The series is described as follows: In vitro multikinase assay.
The subject of series [7] is Vero cell line. As to the kind of experiment: MTT safety assay, Vero normal cells. Format: cell-based. As to conditions: Chlorocebus sabaeus, read-out: IC50 against normal cell line (Vero).
The nature of series [8]: Liver function test. As to conditions: mice; for ALT level: control 25.2 ± 1.2; for AST level: control 29.1 ± 1.1.
In series [9] the test system is BALB/c male mice. The series is described as follows: Determination of LD50 in mice. Type of series: in vivo. As to conditions: mice, 1 and 3 gm/kg single dose orally, 24 h.
Series [10] is described as follows: Determination of LD50 in mice. As to conditions: male, BALB/c, mouse, in vivo, po. Type of series: in vivo.
In series [11] the test system is TNF-α. The series is described as follows: qRT-PCR of TNF-α in MCF7 cells. Format: cell-based. As to conditions: treated MCF7 cells vs control. (Quantitative PCR measures a nucleic acid by following its amplification.)
In series [12] the test system is IL-2. The series is described as follows: qRT-PCR of IL-2 in MCF7 cells. Type of series: cell-based. The note with it: treated MCF7 cells vs control.
Series [13] has as its system MCF7 cells. As to the kind of experiment: Scratch. Type of series: cell-based.
Where [14] appears, read: 100 mg/kg oral single dose (group II).
Setting [15] is: 200 mg/kg oral single dose (group III).

SMILES strings stand for the structures.

Human EGFR, sequence (P00533 25-1210): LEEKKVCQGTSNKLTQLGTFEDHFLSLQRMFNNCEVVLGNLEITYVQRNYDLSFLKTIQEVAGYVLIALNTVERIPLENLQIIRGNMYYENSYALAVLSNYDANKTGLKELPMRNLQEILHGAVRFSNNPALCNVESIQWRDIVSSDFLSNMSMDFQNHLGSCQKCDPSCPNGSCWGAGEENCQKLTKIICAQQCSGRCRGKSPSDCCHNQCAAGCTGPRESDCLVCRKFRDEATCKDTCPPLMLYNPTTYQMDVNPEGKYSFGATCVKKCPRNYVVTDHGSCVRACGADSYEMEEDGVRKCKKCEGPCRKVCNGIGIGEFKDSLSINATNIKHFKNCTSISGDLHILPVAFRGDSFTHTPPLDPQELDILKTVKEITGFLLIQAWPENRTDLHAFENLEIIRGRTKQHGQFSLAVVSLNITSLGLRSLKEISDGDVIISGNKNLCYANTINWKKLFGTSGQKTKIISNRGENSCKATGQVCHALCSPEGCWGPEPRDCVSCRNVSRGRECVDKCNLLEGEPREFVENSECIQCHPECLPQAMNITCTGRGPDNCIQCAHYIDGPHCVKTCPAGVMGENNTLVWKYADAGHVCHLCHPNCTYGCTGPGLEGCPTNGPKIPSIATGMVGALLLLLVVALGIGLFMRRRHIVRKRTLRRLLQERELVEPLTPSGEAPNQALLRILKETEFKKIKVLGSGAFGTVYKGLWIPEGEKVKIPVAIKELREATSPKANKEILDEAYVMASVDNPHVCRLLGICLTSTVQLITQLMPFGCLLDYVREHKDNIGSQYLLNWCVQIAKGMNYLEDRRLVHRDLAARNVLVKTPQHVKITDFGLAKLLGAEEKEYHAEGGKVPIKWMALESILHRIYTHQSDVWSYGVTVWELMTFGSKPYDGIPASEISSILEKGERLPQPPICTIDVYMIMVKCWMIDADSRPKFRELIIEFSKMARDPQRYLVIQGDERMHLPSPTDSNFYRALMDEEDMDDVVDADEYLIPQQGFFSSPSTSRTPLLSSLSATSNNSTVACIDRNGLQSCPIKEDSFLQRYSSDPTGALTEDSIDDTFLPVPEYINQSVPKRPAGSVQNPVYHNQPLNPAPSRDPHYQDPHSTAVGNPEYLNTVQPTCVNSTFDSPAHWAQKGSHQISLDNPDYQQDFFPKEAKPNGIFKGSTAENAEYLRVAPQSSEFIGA
human VEGFR-2, sequence (P35968 20-1356): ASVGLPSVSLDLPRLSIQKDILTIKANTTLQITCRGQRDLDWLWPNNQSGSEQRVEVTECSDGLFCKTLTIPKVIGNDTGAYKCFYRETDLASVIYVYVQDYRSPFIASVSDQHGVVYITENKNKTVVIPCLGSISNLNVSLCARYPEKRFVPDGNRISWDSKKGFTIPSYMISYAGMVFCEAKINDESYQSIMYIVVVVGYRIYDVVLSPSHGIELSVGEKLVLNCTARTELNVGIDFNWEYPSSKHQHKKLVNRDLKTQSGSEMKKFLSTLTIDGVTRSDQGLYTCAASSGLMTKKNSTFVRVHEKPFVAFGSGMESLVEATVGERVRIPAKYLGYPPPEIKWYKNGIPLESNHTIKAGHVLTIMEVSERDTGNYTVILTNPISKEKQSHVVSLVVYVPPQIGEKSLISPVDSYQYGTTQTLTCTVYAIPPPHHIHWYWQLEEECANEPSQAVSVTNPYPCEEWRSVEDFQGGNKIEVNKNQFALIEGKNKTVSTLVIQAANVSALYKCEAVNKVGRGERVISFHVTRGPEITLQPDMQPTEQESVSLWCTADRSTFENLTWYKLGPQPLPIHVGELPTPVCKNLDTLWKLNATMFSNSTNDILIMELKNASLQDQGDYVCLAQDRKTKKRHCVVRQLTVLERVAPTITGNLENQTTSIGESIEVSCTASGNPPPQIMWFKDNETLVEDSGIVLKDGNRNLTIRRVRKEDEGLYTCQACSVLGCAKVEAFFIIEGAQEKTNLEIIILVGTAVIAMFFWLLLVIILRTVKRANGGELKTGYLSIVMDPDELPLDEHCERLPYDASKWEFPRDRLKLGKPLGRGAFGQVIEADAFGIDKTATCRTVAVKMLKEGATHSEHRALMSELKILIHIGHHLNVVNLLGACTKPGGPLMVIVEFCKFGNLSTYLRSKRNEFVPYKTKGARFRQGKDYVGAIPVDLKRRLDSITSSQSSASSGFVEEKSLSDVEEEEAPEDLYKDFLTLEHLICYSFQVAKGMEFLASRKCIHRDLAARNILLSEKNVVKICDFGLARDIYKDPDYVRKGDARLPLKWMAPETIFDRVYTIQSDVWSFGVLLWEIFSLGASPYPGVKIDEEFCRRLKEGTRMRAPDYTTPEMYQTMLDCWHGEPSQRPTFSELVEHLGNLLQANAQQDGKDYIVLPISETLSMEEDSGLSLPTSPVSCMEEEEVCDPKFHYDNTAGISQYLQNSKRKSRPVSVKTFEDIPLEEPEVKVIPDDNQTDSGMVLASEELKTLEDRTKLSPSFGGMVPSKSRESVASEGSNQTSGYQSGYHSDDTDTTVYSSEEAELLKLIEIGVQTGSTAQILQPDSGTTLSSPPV
Human PDGFRβ, sequence (P09619 33-1106): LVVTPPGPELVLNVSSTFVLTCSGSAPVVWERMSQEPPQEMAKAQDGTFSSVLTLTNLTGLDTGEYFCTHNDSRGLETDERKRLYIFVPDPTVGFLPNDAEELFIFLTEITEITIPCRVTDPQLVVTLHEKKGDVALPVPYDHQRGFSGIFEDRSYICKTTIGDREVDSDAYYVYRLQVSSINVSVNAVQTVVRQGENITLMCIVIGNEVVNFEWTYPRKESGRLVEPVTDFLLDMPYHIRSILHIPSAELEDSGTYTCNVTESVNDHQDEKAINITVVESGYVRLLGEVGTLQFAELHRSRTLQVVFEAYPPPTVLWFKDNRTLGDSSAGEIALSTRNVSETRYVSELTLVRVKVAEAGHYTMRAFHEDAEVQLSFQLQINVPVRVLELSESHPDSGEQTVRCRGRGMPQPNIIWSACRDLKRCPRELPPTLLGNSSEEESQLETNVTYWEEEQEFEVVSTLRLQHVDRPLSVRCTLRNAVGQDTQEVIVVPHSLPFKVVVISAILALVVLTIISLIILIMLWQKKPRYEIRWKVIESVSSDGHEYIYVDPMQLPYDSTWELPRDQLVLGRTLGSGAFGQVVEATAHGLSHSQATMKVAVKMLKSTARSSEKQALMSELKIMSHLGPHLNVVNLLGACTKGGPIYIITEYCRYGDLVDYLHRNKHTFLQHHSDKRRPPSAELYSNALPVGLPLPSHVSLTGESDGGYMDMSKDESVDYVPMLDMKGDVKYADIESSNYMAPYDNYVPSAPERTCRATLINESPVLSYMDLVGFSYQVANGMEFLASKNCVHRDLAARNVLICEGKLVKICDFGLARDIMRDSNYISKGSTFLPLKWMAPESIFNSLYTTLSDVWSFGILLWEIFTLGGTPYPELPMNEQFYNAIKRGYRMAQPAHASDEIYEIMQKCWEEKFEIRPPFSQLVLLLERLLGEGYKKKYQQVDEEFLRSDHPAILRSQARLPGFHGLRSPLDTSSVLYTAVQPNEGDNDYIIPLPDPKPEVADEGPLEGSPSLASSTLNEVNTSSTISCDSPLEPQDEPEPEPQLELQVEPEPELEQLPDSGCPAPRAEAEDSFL

`CC(=NNC(=O)c1cccc(C)c1)c1ccc(NC(=O)Cn2c(=O)c3c(ncn3C)n(C)c2=O)cc1` [T-1-MBHEPA, 2-(3,7-dimethyl-2,6-dioxo-2,3,6,7-tetrahydro-1H-purin-1-yl)-N-(4-(1-(2-(3-methylbenzoyl)hydrazono)ethyl)phenyl)acetamide] displayed an IC50 in [1] of 0.121 ± 0.051 µM. The IC50 in series [2] stood at 4.61 µM. Besides, in series [3], the “Apoptosis Early %” value is given as 7.22%, the “Apoptosis Late %” value was found to be 2.72%, the “Apoptosis Total %” value turned out to be 21.35% and the Necrosis % is given as 11.41%. The IC50 in [4] is 0.355 ± 0.014 µM. In [5], the IC50 was 4.85 µM. Besides, the IC50 in series [6] came to 0.179 ± 0.009 µM. Further, the IC50 in series [7] was found to be 80 µM. In series [8] (setting [14]), the ALT level is on record as 25.3 ± 2.1 and the AST level is 29.2 ± 1.1. In series [8] (setting [15]), the ALT level was determined as 28.9 ± 2.1 and the AST level is listed as 31.7 ± 1.8. Also, in series [9], the “Tolerability of the other doses” value is “well tolerated”. This compound also registered an LD50 at 24 h in series [10] of 5000 mg/kg. In addition, the “Reduction of TNF-α production” value in series [11] is 33%. In [12], the “Reduction of IL-2 production” value was found to be 58%. In series [13] (MCF7), the “Scratch area at 48 h” value amounted to 892.6667 and the “Scratch width at 48 h” value was determined as 891.751. In series [13] (MCF7, 48 h), the Area difference % is 71.333%, the RM um stood at 1.485 um and the “Wound closure % um^2” value is listed as 7.399 % um^2. Further, in series [13] (MCF7, 48 h, untreated 65.9 %), the “Decrease of scratch width (healing and migration) within 48 h” value came to 7.4%.

A word on the LD50: it is the dose at which mortality reaches 50%. A higher LD50 goes with lower toxicity.
